Source: patent US12370183B2, “Compositions and methods for treating malaria” (Rutgers, The State University of New Jersey, priority 2020, dated 2025)
Like-named read-outs stand apart in the source and are kept apart here.

Columns and labels:
Format in all cases: cell-based
[1] = tested on: 3D7 strain of Plasmodium falciparum; experiment: Potency in the 3D7 strain of Plasmodium falciparum (EC50); settings: Plasmodium falciparum
Wild-Type attB Pf Dd2 = experiment: P. falciparum (Dd2 strain) asexual blood stage assay, wild-type attB; settings: Plasmodium falciparum
Experimental: (§1) Assays using human blood cells infected with Plasmodium falciparum: (Pf) parasites, both wild-type strains as well as mutant drug-resistant strains, were performed as described below. Wild-type strains used were aatB Pf (Dd2 strain) and Pf (Dd2 strain). Mutant strains used were proguanil resistant attb Pf (Dd2 strain), dihydroorotate dehydrogenase (DHODH) deficient aatB Pf (Dd2 strain), and DHODH deficient and proguanil resistant Pf (Dd2 strain).
(§2) 2008 Jul. 1; 105(26):9059-64.
(§3) Parasitemia was estimated by blood smear Giemsa stain and visual inspection under the microscopic.
The screening plate was prepared by centrifuging for parasite culture for 5 min at 800×g at RT (low brake) and removing supernatant. A parasite suspension was prepared with 0.3% parasitemia and 4% hematocrit in screening medium (SM). The suspension was gassed with a gas mixture of 1% oxygen, 3% carbon dioxide, 96% nitrogen and stored at 37° C. for until ready to use. 50 nl of 1 mM compound in DMSO was prespotted into 1536 well plates (final drug conc. of 12.5 μM, final DMSO conc. of 0.625%) with the acoustic dispenser ATS. Controls were Artemisinin, Chloroquine, and DMSO. 8 μl of SM was dispensed into 1,536-well, black, clear-bottom plates (Greiner) using the MultiFlo™ Microplate dispenser (BioTek) (final parasitemia of 0.3% and 2.5% hematocrit in SM). The plates were incubated at 37° C. for 72 h with water-soaked tissue in a closed ziploc bag gassed with 1% oxygen, 3% carbon dioxide, 96% nitrogen.
(§4) 2 μl of detection reagent mixture (10×SYBR Green I (Invitrogen) in Lysis buffer (20 mM Tris/HCl, 5 mM EDTA, 0.16% Saponin wt/vol, 1.6% Triton X vol/vol) was added. Assay plates were read from the bottom by using the 2104 EnVision® Multilabel Reader (PerkinElmer) (485 nm excitation, 530 nm emission). The results are presented in Table 5 below.

[2] = tested on: DHODH deficient + Proguanil resistant Pf Dd2; experiment: P. falciparum (Dd2 strain) asexual blood stage assay, DHODH deficient + proguanil resistant; settings: Plasmodium falciparum, DD2, 72 h, read-out: DHODH deficient + Proguanil resistant Pf Dd2 IC50 (uM)
Experimental: as §1, §2, §3
The screening plate was prepared by centrifuging for parasite culture for 5 min at 800×g at RT (low brake) and removing supernatant. A parasite suspension was prepared with 0.3% parasitemia and 4% hematocrit in screening medium (SM). The suspension was gassed with a gas mixture of 1% oxygen, 3% carbon dioxide, 96% nitrogen and stored at 37° C. for until ready to use. […]
as §4

[3] = 3D7, read-out: 3D7 Mean EC50 (μM)
[4] = DD2, 72 h, read-out: Wild-Type attB Pf Dd2 IC50 (uM)
[5] = DD2, read-out: IC50 against wild-type attB Pf

SMILES	EC50 [1, 3]	IC50 (Wild-Type attB Pf Dd2; [4])	IC50 (Wild-Type attB Pf Dd2; [5])	IC50 [2]	EC50 ([1]; 3D7, read-out: 3D7 EC50)
O=C1c2c3c(nc4ccccc24)CCN(Cc2ccccc2)C3N1c1ccc(F)c(F)c1 (stereo not drawn) [Compound 177, 3-Benzyl-2-(3,4-difluorophenyl)-2a,3,4,5-tetrahydrobenzo[b]pyrrolo[4,3,2-de][1,6]naphthyridin-1(2H)-one]	0.00328 ± 0.000533 µM	0.00895 µM	0.00895 µM	0.0103 µM	
O=C(Nc1ccc(F)c(F)c1)c1c2c(nc3ccccc13)CCN(Cc1ccccc1)C2 [Compound 66, 2-Benzyl-N-(3,4-difluorophenyl)-1,2,3,4-tetrahydrobenzo[b][1,6]naphthyridine-10-carboxamide]	> 3.49 µM	0.0565 µM	0.0556 µM	0.028 µM	0.0204 µM
